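Step 1: Grow cells in 96-well plates. Step 2: Expose to compound for 48 hours at 5 concentrations. Step 3: Interpolate endpoints linearly; if unreached, use highest concentration. TGI: total growth inhibition.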
Key:
Experiment in all cases: NCI-60 cell line screen, 48 h
[1] = system: HS 578T breast
[2] = system: CCRF-CEM leukemia
[3] = system: MDA-N
[4] = system: OVCAR-3 ovarian
[5] = system: K-562 leukemia
[6] = system: NCI-H460 lung
[7] = system: HOP-62 NSCLC
[8] = system: T-47D breast
[9] = system: IGROV1 ovarian
[10] = system: EKVX NSCLC
[11] = system: MOLT-4 leukemia
[12] = system: MALME-3M melanoma
[13] = system: UO-31 renal
[14] = system: HCT-116 colon
[15] = system: SK-OV-3 ovarian
[16] = system: PC-3 prostate
[17] = system: SK-MEL-5 melanoma
[18] = system: UACC-257 melanoma
[19] = system: OVCAR-5 ovarian
[20] = system: 786-0 renal
[21] = system: NCI-H23 lung
[22] = system: HCT-15 colon
[23] = system: MDA-MB-231 breast
[24] = system: A498 renal
[25] = system: TK-10 renal
[26] = system: U251 CNS
[27] = system: SF-295 CNS
[28] = system: SW-620 colon
[29] = system: SK-MEL-2 melanoma
[30] = system: DU-145 prostate
[31] = system: LOX IMVI melanoma
[32] = system: M14 melanoma
[33] = system: NCI-H522 lung
[34] = system: OVCAR-4 ovarian
[35] = system: SNB-19 CNS
[36] = system: HOP-92 NSCLC
[37] = system: CAKI-1 renal
[38] = system: HCC-2998 colon
[39] = system: MCF7 breast
[40] = system: RPMI-8226 leukemia
[41] = system: ACHN renal
[42] = system: A549 NSCLC
[43] = system: HL-60(TB) leukemia
[44] = system: OVCAR-8 ovarian
[45] = system: NCI/ADR-RES ovarian
[46] = system: SK-MEL-28 melanoma
[47] = system: MDA-MB-435
[48] = system: RXF 393 renal
[49] = system: SF-268 CNS
[50] = system: SR leukemia
[51] = system: HT29 colon
[52] = system: SNB-75 CNS
[53] = system: SF-539 CNS
[54] = system: KM12 colon
[55] = system: NCI-H226 lung
[56] = system: COLO 205 colon
[57] = system: SN12C renal

CC(c1ccccc1)n1c2ccccc2c2c(N)ncnc21 (stereo not drawn)
TGI [1]: 47 µM | TGI [2]: > 100 µM | TGI [3]: 51.9 µM | TGI [4]: 30.6 µM | TGI [5]: 71.9 µM | TGI [6]: 58.3 µM | TGI [7]: 31.9 µM | TGI [8]: 59.6 µM | TGI [9]: 38.2 µM | TGI [10]: 24.7 µM | TGI [11]: 52.7 µM | TGI [12]: 36 µM | TGI [13]: 22.2 µM | TGI [14]: 38.5 µM | TGI [15]: 29.5 µM | TGI [16]: 34.4 µM | TGI [17]: 33.9 µM | TGI [18]: 31.2 µM | TGI [19]: 37.9 µM | TGI [20]: 28.6 µM | TGI [21]: 39.5 µM | TGI [22]: 59.4 µM | TGI [23]: 34.9 µM | TGI [24]: 30.3 µM | TGI [25]: 34.9 µM | TGI [26]: 30.5 µM | TGI [27]: 36.6 µM | TGI [28]: 47.4 µM | TGI [29]: 45.3 µM | TGI [30]: 42.8 µM | TGI [31]: 33.1 µM | TGI [32]: 34.1 µM | TGI [33]: 31.2 µM | TGI [34]: 31.2 µM | TGI [35]: 33.8 µM | TGI [36]: 27.6 µM | TGI [37]: 62.2 µM | TGI [38]: 34.5 µM | TGI [39]: 37.2 µM | TGI [40]: 74.5 µM | TGI [41]: 31.9 µM | TGI [42]: 46.3 µM | TGI [43]: 47.8 µM | TGI [44]: 31.8 µM | TGI [45]: 46.3 µM | TGI [46]: 33.8 µM | TGI [47]: 31 µM | TGI [48]: 33.5 µM | TGI [49]: 43.5 µM | TGI [50]: 56.7 µM | TGI [51]: 31.6 µM | TGI [52]: 9.19 µM | TGI [53]: 30.8 µM

S=C1C(CCCOCc2ccccc2)C2CCCC23CC2(CCN13)OCCS2 (stereo not drawn)
TGI [54]: > 10 µM | TGI [1]: > 10 µM | TGI [2]: > 10 µM | TGI [3]: > 10 µM | TGI [4]: > 10 µM | TGI [5]: > 10 µM | TGI [6]: > 10 µM | TGI [7]: > 10 µM | TGI [8]: > 10 µM | TGI [9]: > 10 µM | TGI [10]: > 10 µM | TGI [11]: > 10 µM | TGI [12]: > 10 µM | TGI [13]: > 10 µM | TGI [15]: > 10 µM | TGI [16]: > 10 µM | TGI [55]: > 10 µM | TGI [17]: > 10 µM | TGI [18]: > 10 µM | TGI [19]: > 10 µM | TGI [20]: > 10 µM | TGI [21]: > 10 µM | TGI [22]: > 10 µM | TGI [23]: > 10 µM | TGI [24]: > 10 µM | TGI [25]: > 10 µM | TGI [26]: > 10 µM | TGI [27]: > 10 µM | TGI [28]: > 10 µM | TGI [29]: > 10 µM | TGI [30]: > 10 µM | TGI [56]: > 10 µM | TGI [31]: > 10 µM | TGI [32]: > 10 µM | TGI [33]: > 10 µM | TGI [34]: > 10 µM | TGI [35]: > 10 µM | TGI [36]: > 10 µM | TGI [37]: > 10 µM | TGI [38]: > 10 µM | TGI [39]: > 10 µM | TGI [40]: > 10 µM | TGI [41]: > 10 µM | TGI [57]: > 10 µM | TGI [43]: > 10 µM | TGI [44]: > 10 µM | TGI [45]: > 10 µM | TGI [46]: > 10 µM | TGI [47]: > 10 µM | TGI [48]: > 10 µM | TGI [49]: > 10 µM | TGI [50]: > 10 µM | TGI [51]: > 10 µM | TGI [52]: > 10 µM | TGI [53]: > 10 µM
